Where a chain is given by its changes, count along the chain named. In names and notes the source's numbering stands. Blank lines part the entries; values can stand above or below the molecule they belong to.
Key:
[1] = tested on: T1, nADSL (Neanderthal adenylosuccinate lyase); test: absorbance at […] nm, SAMP formation; assay type: biochemical, Homo sapiens neanderthalensis; conditions: reverse reaction, 1 mM AMP, room temperature; Michaelis-Menten fit
T1 construct: gene ADSL; Neanderthal (ancestral Ala429) variant, equals human ADSL with V429A; N-terminal thrombin-cleavable His tag (pET-14b), cut; E. coli Rosetta2 (DE3); homotetramer

[2] = target: T2, hADSL (modern human adenylosuccinate lyase) (Homo sapiens, UniProt P30566); test: absorbance at […] nm, SAMP formation; assay type: biochemical; conditions: reverse reaction, 1 mM AMP, room temperature; Michaelis-Menten fit
T2 construct: gene ADSL; N-terminal thrombin-cleavable His tag (pET-14b), E. coli Rosetta2 (DE3); tag cut, but kept for the domain 3 mutants; homotetramer; Val429
T2 sequence (P30566 1-484): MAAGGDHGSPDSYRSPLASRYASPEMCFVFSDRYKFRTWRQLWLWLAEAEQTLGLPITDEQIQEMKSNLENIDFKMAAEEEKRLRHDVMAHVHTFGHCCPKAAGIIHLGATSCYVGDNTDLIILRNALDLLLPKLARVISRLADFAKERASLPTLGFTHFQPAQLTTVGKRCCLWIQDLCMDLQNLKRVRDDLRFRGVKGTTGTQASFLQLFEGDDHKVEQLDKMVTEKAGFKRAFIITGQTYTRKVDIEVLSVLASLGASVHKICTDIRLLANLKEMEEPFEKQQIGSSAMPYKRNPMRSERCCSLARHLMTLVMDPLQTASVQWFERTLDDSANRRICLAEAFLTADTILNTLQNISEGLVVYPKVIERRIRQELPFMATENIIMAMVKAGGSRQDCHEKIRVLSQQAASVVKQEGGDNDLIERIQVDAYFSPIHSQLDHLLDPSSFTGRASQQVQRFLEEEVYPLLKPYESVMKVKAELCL

[3] = target: T2, hADSL (modern human adenylosuccinate lyase); test: small angle X-ray scattering; assay type: binding; conditions: 1 mM product(s), with fumarate; 20 °C; no curve change with AICAR alone
[4] = tested on: T1, nADSL (Neanderthal adenylosuccinate lyase); test: absorbance at […] nm, SAMP breakdown; assay type: biochemical, Homo sapiens neanderthalensis; conditions: forward reaction, room temperature; positive cooperativity, Hill coefficient 1.8; read-out: K0.5
[5] = target: T1, nADSL (Neanderthal adenylosuccinate lyase); test: isothermal titration calorimetry; assay type: binding, Homo sapiens neanderthalensis; conditions: 10 mM HEPES pH 7.5, 100 mM NaCl, 1 mM DTT, 20 °C; 90 µM protein in cell
[6] = target: T2, hADSL (modern human adenylosuccinate lyase); test: isothermal titration calorimetry; assay type: binding
purified protein = substrate: O=C(O)C[C@H](Nc1ncnc2c1ncn2[C@@H]1O[C@H](COP(=O)(O)O)[C@@H](O)[C@H]1O)C(=O)O; test: purified protein; assay type: biochemical, Homo sapiens; conditions: room temperature
[7] = target: the molecule itself; test: SEC; Superdex 200 in 10 mM HEPES pH 7.5, 100 mM NaCl, 1 mM DTT; last step of the purification; single peak
[8] = target: the molecule itself; test: crystal structure; nADSL apo (1.7 Å), with AMP/fumarate (2.3 Å) and with AICAR/fumarate; vapour diffusion, 10 mg/mL protein; homotetramer
[9] = His tag not cleaved, 0.01 mg/mL enzyme, cooperative model fit

Molecule: O=C(O)/C=C/C(=O)O [fumarate]
Km [1]: 66 µM
Km [2]: 80 µM

Molecule: NC(=O)c1ncn([C@@H]2O[C@H](COP(=O)(O)O)[C@@H](O)[C@H]2O)c1N [AICAR]
small angle X-ray scattering [3]: addition of both AMP/fumarate or AICAR/fumarate to the protein results in a similar altered scattering

Km [4]: 1.1 µM
Molecule: O=C(O)C[C@H](Nc1ncnc2c1ncn2[C@@H]1O[C@H](COP(=O)(O)O)[C@@H](O)[C@H]1O)C(=O)O [SAMP]

Kd [5]: ~25 µM
Kd [6]: ~25 µM
Molecule: Nc1ncnc2c1ncn2[C@@H]1O[C@H](COP(=O)(O)O)[C@@H](O)[C@H]1O [AMP]

B1: modern human adenylosuccinate lyase (enzyme, UniProt P30566 1-484, looked up)
chain: T2 sequence (P30566 1-484)
notes: adenylosuccinate lyase (ADSL), modern human (Val429); Expressed from pET-14b with a thrombin-cleavable N-terminal histidine tag; also called hADSL; native hADSL; source: E. coli Rosetta2 (DE3), purified (HisTrap, thrombin cleavage, benzamidine-sepharose, Superdex 200); not shown: histidine tag, N-terminal, cleaved
K0.5 (purified protein; forward reaction, positive cooperativity, Hill coefficient 1.6): 1.1 µM
stoichiometry N [7]: 4

B2: hADSL (modern human adenylosuccinate lyase) (Homo sapiens; R426H) (protein)
chain: T2 sequence (P30566 1-484) with R426H
notes: N-terminal thrombin-cleavable His tag (pET-14b), E. coli Rosetta2 (DE3); tag cut, but kept for the domain 3 mutants; homotetramer; Val429
K0.5 (purified protein; [9]): 0.75 ± 0.06 µM

B3: hADSL (modern human adenylosuccinate lyase) (Homo sapiens; D422Y) (protein)
chain: T2 sequence (P30566 1-484) with D422Y
notes: as for B2
K0.5 (purified protein; [9]): 0.36 ± 0.03 µM

B4: Neanderthal adenylosuccinate lyase (enzyme)
chain: T2 sequence (P30566 1-484) with V429A
notes: Expressed from pET-14b with a thrombin-cleavable N-terminal histidine tag; also called nADSL; ancestral Ala429 ADSL variant; source: E. coli Rosetta2 (DE3), purified (HisTrap, thrombin cleavage, benzamidine-sepharose, Superdex 200); not shown: histidine tag, N-terminal, cleaved
stoichiometry N [8]: 4
